Values quoted from earlier work as cited in patent US10631556B2, “Method for conducing concentrated cannabis oil to be stable, emulsifiable and flavorless for use in hot beverages and resulting powderized cannabis oil” (Pivot Naturals, LLC., priority 2015, dated 2020).

Key:
Mice [1] = system: Mice
CYP 2C9 = CYP 2C9 (Homo sapiens, UniProt P11712); settings: anecdotal online article
Mice [2] = settings: odor inhaled from ambient air for 1 hour
[3] = mice, odor inhaled from ambient air for 1 hour
[4] = inhalation

Sequence of CYP 2C9 (P11712 whole entry): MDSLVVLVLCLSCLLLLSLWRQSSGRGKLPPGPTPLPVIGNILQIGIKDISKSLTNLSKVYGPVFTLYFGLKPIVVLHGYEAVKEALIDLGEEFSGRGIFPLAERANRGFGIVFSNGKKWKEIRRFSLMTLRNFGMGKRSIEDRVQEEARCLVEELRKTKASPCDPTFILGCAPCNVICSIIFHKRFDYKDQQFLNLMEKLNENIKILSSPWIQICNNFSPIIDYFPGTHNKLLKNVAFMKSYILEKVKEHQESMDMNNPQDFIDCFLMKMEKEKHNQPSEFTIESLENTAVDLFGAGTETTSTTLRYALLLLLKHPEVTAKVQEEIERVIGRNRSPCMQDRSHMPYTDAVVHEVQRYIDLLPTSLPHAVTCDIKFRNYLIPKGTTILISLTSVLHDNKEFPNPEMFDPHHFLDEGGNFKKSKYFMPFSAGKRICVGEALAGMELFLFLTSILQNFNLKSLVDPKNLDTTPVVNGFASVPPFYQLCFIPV

C=CC(=C)CCC=C(C)C [myrcene]
muscle relaxant effect (Mice [1]): acted as a muscle relaxant
barbiturate sleep time (Mice [1]; high doses): potentiated barbiturate sleep time

O=C(/C=C/C=C/c1ccc2c(c1)OCO2)N1CCCCC1 [Piperine]
inhibition of CYP 2C9 (CYP 2C9): strongly

pinene
increase in mouse activity (Mice [2]): 13.77%
serum concentration [3]: trace
human pulmonary uptake [4]: 60%

C=C(C)[C@H]1CC=C(C)CC1 [Limonene]
human pulmonary uptake [4]: 70%

C=CC(C)(O)CCC=C(C)C (centres unmarked) [linalool]
reduction in motility (Mice [2]): 73%
serum concentration [3]: 4.22 ng/mL

CCCCCc1cc(O)c2c(c1)OC(C)(C)[C@@H]1CCC(C)=C[C@@H]21 [THC, tetrahydrocannabinol]
solubility in most organic solvents (organic solvents, specifically lipids and alcohols): good
solubility in water (water): very low
